The text below walks through data of patent publication US20190209581A1, “DOSAGE REGIMEN FOR TREATMENT OF SOLID TUMORS” (Eli Lilly and Company, priority 2016, published 2019).

Data set [1] can be described thus: Toxicokinetics in Beagle dogs. The class given is in vivo, dog. The conditions noted are these: for Cmax: beagle, po. Here is the method: A study is carried out to assess the Toxicity and Toxicokinetics of 4,4,4-trifluoro-N-[(1S)-2-[[(7S)-5-(2-hydroxyethyl)-6-oxo-7H-pyrido[2,3-d][3]benzazepin-7-yl]amino]-1-methyl-2-oxo-ethyl]butanamide in dogs given oral gavage doses of 0 or 1.3 mg/kg once daily for 6 days or 0.3 or 3 mg/kg every other day for a total of 3 doses. 4,4,4-Trifluoro-N-[(1S)-2-[[(7S)-5-(2-hydroxyethyl)-6-oxo-7H-pyrido[2,3-d][3]benzazepin-7-yl]amino]-1-methyl-2-oxo-ethyl]butanamide is combined with a vehicle comprising 1% carboxymethylcellulose sodium, 0.25% polysorbate 80 and 0.05% Dow Corning® Antifoam 1510-US in purified water. Dogs (beagle), Covance Research Products, 1 animal/sex/group are fed daily (soon after dosing) and are fasted overnight prior to scheduled chemistry blood collections and necropsy. The test compound is administered by oral gavage in a volume of 2 mL/kg body weight. The duration of the study for all groups is 6 days.
Groups 01 and 04, Blood is collected at the following times relative to dosing on Day 1: 0.5, 1, 2, 4, 8, and 24 hours postdose.
Groups 02 and 04: Blood is collected at the following times relative to dosing on Days 2 and 6: 0 (predose; Day 6 only), 0.5, 1, 2, 4, 8, 24, 30, and 48 hours postdose.

Data set [2] deals with human colon carcinoma (EL2144). The data set is described as follows: Tumor growth inhibition, patient-derived tumor model EL2144. The data set is classed as in vivo. To be noted: EL2144 in mice, oral 10 mg/kg, Q2Dx8; p <0.0001. Here is the method: To evaluate in vivo efficacy and effect of 4,4,4-Trifluoro-N-[(1S)-2-[[(7S)-5-(2-hydroxyethyl)-6-oxo-7H-pyrido[2,3-d][3]benzazepin-7-yl]amino]-1-methyl-2-oxo-ethyl]butanamide on inhibition of Notch processing pharmacodynamics (PD), several cell lines- and patient-derived xenograft models are used. A2780 is a human ovarian cell line (Sigma-Aldrich, No. 93112519); SW480 is a human colorectal cell line (ATCC No. CCL-228); HCT 116 is a human colorectal cell line (ATCC No. CCL-247); U-87 MG is a human glioblastoma cell line (ATCC No. HTB-14); A375 is a human malignant melanoma cell line (ATCC No. CRL-1619); K-562 is a human chronic myelogenous leukemia (CML) cell line characterized by the presence of a fusion transcript comprised of the Bcr and Abl1 genes (ATCC No. CCL-243); Jurkat; HEL 92.1.7 is a human erythroleukemia cell line (ATCC No. TIB-180). […] Tumor growth and body weight are monitored over time to evaluate efficacy and signs of toxicity. Bidimensional measurements of tumors are performed twice a week and tumor volumes are calculated based on the following formula: (Tumor Volume)=[(L)×(W2)×(Π/6)] where L is mid-axis length and W is mid-axis width. […] The log volume data are analyzed with a two-way repeated measures analysis of variance by time and treatment using the MIXED™ procedures in SAS™ software (version 8.2). […]

Where [3] appears, read: Beagle dog, single oral dose 1.3 mg/kg, Subject 0007_M.
Setting [4] is: Beagle dog, single oral dose 1.3 mg/kg, Subject 0008_F.
The mark [5] stands for this setting: Beagle dogs, multiple oral doses (3 doses/week), 0.3 mpk, mean n = 2.
The mark [6] stands for this setting: Beagle dogs, multiple oral doses (3 doses/week), 3 mpk, mean n = 2.
Where [7] appears, read: Beagle dogs, single oral dose 1.3 mg/kg, Mean, n = 2.
The mark [8] stands for this setting: Beagle dogs, single oral dose, 0.3 mpk, mean n = 2.
The mark [9] stands for this setting: Beagle dogs, single oral dose, 3 mpk, mean n = 2.

For orientation: AUC means concentration integrated over time. Low readings indicate low exposure, high ones high exposure. As usually defined, the Tmax is the time from dosing to the highest level. As usually defined, the Cmax is the highest concentration seen after dosing. As to `C[C@H](NC(=O)CCC(F)(F)F)C(=O)N[C@@H]1C(=O)N(CCO)c2ncccc2-c2ccccc21` [Compound 1, 4,4,4-trifluoro-N-[(1S)-2-[[(7S)-5-(2-hydroxyethyl)-6-oxo-7H-pyrido[2,3-d][3]benzazepin-7-yl]amino]-1-methyl-2-oxo-ethyl]butanamide], the area under the curve (AUC) in data set [1] (setting [3]) came out at 4030 ng·h/mL; in data set [1] (setting [4]) it was 4500 ng·h/mL; in data set [1] (setting [5]), 3070 ng·h/mL; in data set [1] (setting [6]), 14400 ng·h/mL; in data set [1] (setting [7]), 4270 ng·h/mL; in data set [1] (setting [8]), 1290 ng·h/mL. Further, the AUC in data set [1] (setting [9]) turned out to be 5860 ng·h/mL. Besides, the Tmax in data set [1] (setting [3]) came to 30 min; in data set [1] (setting [4]), 30 min; in data set [1] (setting [5]) it was 45 min; in data set [1] (setting [6]), 45 min; in data set [1] (setting [7]), 30 min; in data set [1] (setting [8]) it was 30 min. Besides, the Tmax in data set [1] (setting [9]) came to 30 min. Besides, the Cmax in data set [1] (both sexes, dog, blood, 1.3 mg/kg, Beagle dogs, single oral dose 1.3 mg/kg, Mean, n = 2) is 1940 ng/mL; in data set [1] (both sexes, dog, in vivo, 0.3 mg/kg, Beagle dogs, multiple oral doses (3 doses/week), 0.3 mpk, mean n = 2), 2460 ng/mL; in data set [1] (both sexes, dog, in vivo, 0.3 mg/kg, Beagle dogs, single oral dose, 0.3 mpk, mean n = 2), 309 ng/mL; in data set [1] (both sexes, dog, in vivo, 3 mg/kg, Beagle dogs, multiple oral doses (3 doses/week), 3 mpk, mean n = 2), 4530 ng/mL; in data set [1] (both sexes, dog, in vivo, 3 mg/kg, Beagle dogs, single oral dose, 3 mpk, mean n = 2), 2730 ng/mL; in data set [1] (female, dog, blood, 1.3 mg/kg, Beagle dog, single oral dose 1.3 mg/kg, Subject 0008_F) it was 2070 ng/mL. For the same compound, the highest level in data set [1] (male, dog, blood, 1.3 mg/kg, Beagle dog, single oral dose 1.3 mg/kg, Subject 0007_M) (Cmax) was 1800 ng/mL. The “24 hour drug concentrations” value in data set [1] (dog, daily and TIW regimens) is reported as “minimal”. Besides, the “% TGI” value in data set [2] is reported as 53.37 (<0.0001) %.
